# Experimental data as given in patent publication US4721713A, “Process for inhibiting blood platelet aggregation and promoting vasodilation” (Toyo Jozo Kabushiki Kaisha, priority 1986, dated 1988).
# Like-named read-outs stand apart in the source and are kept apart here.
# Key:
# [1] = test system: platelet aggregation in platelet-rich rabbit plasma; assay: Inhibitory effect on blood platelet aggregation, effect in vitro (ADP-induced); type: cell-based; settings: for inhibition at 100 µM: Oryctolagus cuniculus, Platelet, 0.05 h, read-out: Inhibition Ratio on Platelet Aggregation (Mean ± S.E)
# Procedure: An aggregating agent, adenosine-5'-diphosphate (final concentration 2.5 μM), was added thereto and the platelet aggregating potential was measured with an aggregometer.
# [2] = test system: number of platelets in the circulating blood; assay: Effect in vivo: number of platelets in circulating blood after E. coli lipopolysaccharide; set-up: species or system Male Wistar rats; settings: for Number of Platelets, Exp. 1 / Number of Platelets, Exp. 2: ratio pre- and post-administration, LPS 5 mg/kg i.p., 3 hours
# Procedure: Male Wistar rats, five animals in a group, were administered per orally the agents to be tested. After one hour, E. coli lipopolysaccharide (5 mg/kg) was injected intraperitoneally and 3 hours thereafter blood samples were collected and measured as to the number of platelets in the circulating blood to determine the ratio of platelets pre- and post-administration of the agents. The tests were repeated twice.
# [3] = test system: experimental disseminated intravascular coagulation; assay: Effect on disseminated intravascular coagulation (E. coli lipopolysaccharide infusion); type: in vivo, Male Wistar rats; settings: 100 mg/kg p.o.
# Procedure: Male Wistar rats, seven animals in a group, were administered per orally the agents (100 mg/kg) to be tested. After one hour, E. coli lipopolysaccharide (50 mg/kg) was continuously injected intravenously for four hours. A control group was given physiological saline intravenously under the same conditions.
# Blood was collected immediately after finishing the injection to measure the number of platelets, the activated partial thromboplastin time, the prothrombin time and the amount of fibrinogen. In the control group, in which E. coli lipopolysaccharide was injected, a marked decrease in the number of platelets and the amount of fibrinogen and a marked prolongation of the activated partial thromboplastin time and the prothrombin time are observed.
# [4] = test system: blood flow in left hind leg; assay: Vasodilating activity upon intra-arterial administration (perfused left hind leg); type: in vivo, Mongrel dogs; settings: for Vasodilating Activity (relative to blood flow increase by papaverine 30 μg as 100%): 100 μg, i.a., mean ± S.E. for 3 animals
# Procedure: Mongrel dogs anesthetized with urethane (450 mg/kg iv) and α-chlora-lose (45 mg/kg iv) after pretreatment with morphine (1.5 mg/kg, sc) were secured in a supine position. Blood from the right femoral artery was introduced into the left femoral artery through a circulation pump and the left hind leg was perfused under constant pressure by connection with a Starling's resistance in an exosomatic circulatory system. The prefusion pressure was set slightly higher than the mean blood pressure of each animal and the change in blood flow upon intra-arterial injection of the test compound was determined. The results, showing specific activity as compared with a value indicating the degree of increase in the amount of blood flow by papaverine (30 μg, iv) as 100%, are shown in Table 4.
# [5] = test system: arterial blood flow (vertebral, coronary, renal, femoral); assay: Vasodilating activity upon intravenous administration (regional arterial blood flow); type: in vivo, mongrel dog; settings: FIG. 1
# Excerpt: A cuff-type probe for measuring blood flow was applied to the left vertebral artery, the left anterior descending coronary artery, the left renal artery and the right femoral artery of a mongrel dog anesthetized in the same way as hereinabove and the blood flow was continuously measured. The blood pressure was monitored by a pressure transducer connected to a cannula inserted into the left femoral artery, and the heart rate was monitored through a tachometer by triggering the R-wave of lead II of an electrocardiograph. The agent to be tested was injected into the left venous cephalica. The results are shown in FIG. 1, in which the ordinate indicates the response ratio and the abscissa indicates dosages by intravenous administration, and in which
# anoxia = assay: Protective effect against anoxia; type: in vivo, Male ddY strain mice; settings: for Survival Time: 200 mg/kg p.o., mean ± S.E.
# Procedure: The present compound and a control were administered per orally 30 or 60 mins. before the test.
# PAF-induced shock = assay: Effect against platelet activated factor (PAF)-induced shock; type: in vivo, Male ddY strain mice; settings: 100 mg/kg p.o.
# Procedure: Male ddY strain mice, male, 10 animals in a group, were administered per orally the compound of the present invention (100 mg/kg), and after one hour PAF (60 μg/kg) was administered intravenously to determine the ratio of mortality.
# Acute toxicity in mice = type: in vivo; settings: mouse, in vivo
# mice = assay: Acute toxicity in mice; type: in vivo; settings: intravenous 100 mg/kg
# Acute toxicity in rats = type: in vivo, male Wister rats; settings: rat, in vivo; oral, rats
# rats = assay: Acute toxicity in rats; type: in vivo, male Wister rats
# [6] = test system: L5178Y murine lymphoblastoma; assay: Cytotoxicity; type: cell-based; settings: 37° C. for 18 hours
# Procedure: To L5178Y murine lymphoblastoma (2×10^4 cells/ml) suspended in a medium (27 ml) comprising Fischer's culture medium including 10% bovine serum, were added test agents in solution (0.3 ml) diluted with a culture medium and the material was incubated at 37° C. for 18 hours. Growth of the cells was determined by color change. Growth inhibition of the cells was not observed at any concentration of 20 μg/ml and 100 μg/ml of the compound of the present invention, and so no cytotoxicity was observed.
# [7] = test system: microorganism strains TA100, TA1535, WP2 uvr A, TA98, TA1537 and TA1538; assay: Mutagenicity, backward mutation test; type: cell-based
# Procedure: A backward mutation test using microorganism strains TA100, TA1535, WP2 uvr A, TA98, TA1537 and TA1538 was performed by the method according to Iyer et al. [N. Y. Iyer and W. Szybalski, Appl. Microbiol., 6: 37 (1958)]. The test agents were tenfold diluted in six stages of concentration of 0.00333-333 μg/disc.
# [8] = final concentration 100 μM, ADP 2.5 μM
# [9] = final concentration 100 μM, ADP 2.5 μM, 37° C. for 3 minutes
# [10] = LPS 50 mg/kg i.v. over four hours
# [11] = PAF 60 μg/kg i.v. after one hour
structure (smiles),measurement,setting,value
"CC(=O)Oc1ccccc1C(=O)O [Acetyl salicylic acid, acetyl salicylic acid]",inhibition at 100 µM,[1],-0.6 ± 0.6%
same,Inhibitory effect on blood platelet aggregation (in words),[1]; [8],no inhibitory effect
"Cc1nc(O)c(C(C)C)nc1C.Cl [Present compound, 2-hydroxy-3-isopropyl-5,6-dimethylpyrazine hydrochloride]",inhibition at 100 µM,[1]; [9],69.6 ± 5.4%
same,Inhibitory effect on blood platelet aggregation (in words),[1]; [8],distinct inhibitory effect
same,"Number of Platelets, Exp. 1",[2]; 100 mg/kg p.o.,58.2 ± 7.8%
same,"Number of Platelets, Exp. 2",[2]; 100 mg/kg p.o.,55.9 ± 14.0%
same,Effect on decrease of platelet number (in words),"[2]; 100 mg/kg per orally, compared with ticlopidine 200 mg/kg oral","inhibits the decrease of platelet number, which is comparable to an oral dose of 200 mg/kg ticlopidine"
same,Activated Partial Thromboplastin Time,[3]; [10],48.5 ± 7.4 s
same,Fibrinogen,[3]; [10],77.2 ± 13.1 mg/dL
same,Platelet Number,[3]; [10],177 ± 51 × 10^3 /mm^3
same,Prothrombin Time,[3]; [10],14.3 ± 1.4 s
same,Effect against all the factors tested (in words),[3]; experimental disseminated intravascular coagulation,significant effect against all the factors tested
same,Vasodilating Activity (relative to blood flow increase by papaverine 30 μg as 100%),[4],100.7 ± 19.1%
same,Vasodilating activity compared with tetramethylpyrazine (in words),[4]; intra-arterial,"markedly stronger vasodilating activity than that of the control drug, tetramethylpyrazine"
same,Coronary arterial blood flow (in words),[5],"increases blood flow in the vertebral artery, in the coronary artery"
same,Femoral arterial blood flow (in words),[5],"increases blood flow in the vertebral artery, in the coronary artery and in the femoral artery"
same,Renal arterial blood flow (in words),[5],does not affect the renal arterial blood flow
same,Selectivity for vertebral and coronary arterial blood flow (in words),[5],Selective effects on the vertebral arterial blood flow and the coronary arterial blood flow
same,Vertebral arterial blood flow (in words),[5],increases blood flow in the vertebral artery
same,Survival Time,anoxia; pretreatment time 30 min.,42.7 ± 1.6 s
same,Survival Time,anoxia; pretreatment time 60 min.,48.1 ± 1.9 s
same,Survival time (in words),anoxia; pretreatment per orally,Significant prolongation of survival time
same,Action against PAF-induced shock (in words),PAF-induced shock,protective action
same,"Mortality, Experiment 1",PAF-induced shock; [11],1/10
same,"Mortality, Experiment 2",PAF-induced shock; [11],3/10
same,LD50,"Acute toxicity in mice; intravenous, read-out: LD50",~200 mg/kg
same,LD50,"Acute toxicity in mice; oral, read-out: LD50 oral",555 mg/kg
same,Death,mice,no death was observed
same,LD50,Acute toxicity in rats,903 mg/kg
same,Death,"rats; intravenous 50 mg/kg, rats",no death was observed
same,Dose attainable due to the solubility of the compound,"rats; rat, in vivo, iv",up to 50 mg/kg
same,Growth inhibition of the cells,[6]; 20 μg/ml,not observed
same,Growth inhibition of the cells,[6]; 100 μg/ml,not observed
same,Mutagenesis,"[7]; 0.00333-333 μg/disc, any concentration",No mutagenesis was found
same,Mutagenesis under metabolic activation,[7]; metabolic activation using an S-9 mixture,no mutagenesis was observed
"Cc1nc(C)c(C)nc1C [Tetramethylpyrazine, tetramethylpyrazine]",inhibition at 100 µM,[1]; [9],3 ± 1.6%
same,Inhibitory effect on blood platelet aggregation (in words),[1]; [8],no inhibitory effect
same,Vasodilating Activity (relative to blood flow increase by papaverine 30 μg as 100%),[4],19.3 ± 0.9%
"Clc1ccccc1CN1CCc2sccc2C1 [Ticlopidine, ticlopidine, reference compound]",inhibition at 100 µM,[1]; [9],-1.2 ± 1.2%
same,Inhibitory effect on blood platelet aggregation (in words),[1]; [8],no inhibitory effect
same,"Number of Platelets, Exp. 1",[2]; 200 mg/kg p.o.,57.9 ± 12.0%
same,"Number of Platelets, Exp. 2",[2]; 200 mg/kg p.o.,63.4 ± 19.4%
